Literature values as cited in publication PMC7465340, “Preparation and Evaluation of Eudragit L100-PEG Proliponiosomes for Enhanced Oral Delivery of Celecoxib” (Pharmaceutics, 2020).
In brackets after ≈: the same amount, converted by molar mass. Where two headings read alike, the source gives them in different places.

In the case of Cc1ccc(-c2cc(C(F)(F)F)nn2-c2ccc(S(N)(=O)=O)cc2)cc1 [CXB, Celecoxib], the “solubility in aqueous media” value (pH 1.2) is listed as 1.4 µg/mL (≈ 3.67 µM), the “solubility in aqueous media” value (pH 6.8) is listed as 1.2 µg/mL (≈ 3.15 µM) and the “solubility of free CXB” value (pH 6.8) is listed as “≈ 1.23 ± 0.05 μg/mL”.
